Data as given in ChEMBL document CHEMBL1201862, “PubChem BioAssay data set” (2004).
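Interpolation was linear, between the two tested concentrations surrounding the appropriate level; five concentrations were tested over 48 hours in 96-well plates. Here, GI50 denotes the concentration required for 50% inhibition of growth.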 Calls of active or inactive are those of the source. Cut-off read from the data, not from the text of the source: active = GI50 up to about 1.1 µM and inactive = higher.

Columns and labels:
Test in all cases: NCI-60 cell line screen, 48 h
786-0 = tested on: 786-0
A549 = tested on: A549
ACHN = tested on: ACHN
EKVX = tested on: EKVX
HCC 2998 = tested on: HCC 2998
HL-60 = tested on: HL-60
LOX IMVI = tested on: LOX IMVI
MDA-MB-435 = tested on: MDA-MB-435
Malme-3M = tested on: Malme-3M
NCI-H23 = tested on: NCI-H23
NCI/ADR-RES = tested on: NCI/ADR-RES
OVCAR-3 = tested on: OVCAR-3
OVCAR-5 = tested on: OVCAR-5
OVCAR-8 = tested on: OVCAR-8
SK-MEL-28 = tested on: SK-MEL-28
SK-MEL-2 = tested on: SK-MEL-2
SNB-19 = tested on: SNB-19
U-251 = tested on: U-251
UACC-62 = tested on: UACC-62
MDA-MB-231 = tested on: MDA-MB-231

Measured: GI50

CNC(=O)Oc1ccc(C(=S)Nc2ccc(Br)cc2)cc1
inactive: 786-0 21.8 µM | A549 21.9 µM | ACHN 24.4 µM | EKVX 8.05 µM | HCC 2998 17.8 µM | HL-60 2.1 µM | LOX IMVI 13.4 µM | MDA-MB-435 21.8 µM | Malme-3M 31.3 µM | NCI-H23 15.7 µM | NCI/ADR-RES 17.6 µM | OVCAR-3 19.7 µM | OVCAR-5 25.4 µM | OVCAR-8 7.98 µM | SK-MEL-28 22 µM | SK-MEL-2 17.7 µM | SNB-19 36.3 µM | U-251 23.2 µM | UACC-62 12.9 µM

CC(C)(C)OC(=O)NC(CCCCNC(=O)OCc1ccccc1)C(=O)NC(CCCCNC(=O)OCc1ccccc1)C(=O)ON1C(=O)CCC1=O (centres undefined)
inactive: 786-0 > 100 µM | A549 > 100 µM | EKVX > 100 µM | HCC 2998 > 100 µM | HL-60 > 100 µM | MDA-MB-231 > 100 µM | Malme-3M > 100 µM | NCI-H23 > 100 µM | OVCAR-5 > 100 µM | OVCAR-8 > 100 µM | SK-MEL-28 > 100 µM | SK-MEL-2 > 100 µM | SNB-19 > 100 µM | U-251 > 100 µM | UACC-62 > 100 µM

CCOC(=O)C(C(=O)OCC)S(C)(=O)=O
inactive: 786-0 > 100 µM | A549 > 100 µM | ACHN > 100 µM | EKVX > 100 µM | HCC 2998 > 100 µM | HL-60 > 100 µM | LOX IMVI > 100 µM | Malme-3M > 100 µM | NCI-H23 > 100 µM | OVCAR-3 > 100 µM | OVCAR-5 > 100 µM | OVCAR-8 > 100 µM | SK-MEL-28 > 100 µM | SK-MEL-2 > 100 µM | SNB-19 > 100 µM | U-251 > 100 µM | UACC-62 > 100 µM

CN(C)P(=O)(/C(N)=N/Nc1ccc([N+](=O)[O-])cc1)N(C)C
inactive: 786-0 > 100 µM | A549 > 100 µM | ACHN > 100 µM | EKVX > 100 µM | HCC 2998 > 100 µM | HL-60 > 100 µM | LOX IMVI > 100 µM | Malme-3M > 100 µM | NCI-H23 62.4 µM | OVCAR-3 > 100 µM | OVCAR-5 > 100 µM | OVCAR-8 > 100 µM | SK-MEL-28 > 100 µM | SK-MEL-2 > 100 µM | SNB-19 > 100 µM | U-251 > 100 µM | UACC-62 > 100 µM

C[C@]12CC(C#N)C(=O)C(O)=C1CC[C@@H]1C2CC[C@@]2(C)C1CC[C@@H]2O (some centres undefined)
inactive: 786-0 22.9 µM | A549 47.5 µM | ACHN 47.2 µM | EKVX 34.8 µM | HCC 2998 > 100 µM | HL-60 13.8 µM | LOX IMVI 27.4 µM | Malme-3M 31.1 µM | NCI-H23 35.6 µM | OVCAR-3 65.5 µM | OVCAR-5 27.3 µM | OVCAR-8 > 100 µM | SK-MEL-28 40.9 µM | SK-MEL-2 51.8 µM | SNB-19 83.4 µM | U-251 > 100 µM | UACC-62 3.99 µM

CC1=Nc2ccccc2S(=O)(=O)N1
inactive: 786-0 > 100 µM | A549 > 100 µM | ACHN > 100 µM | EKVX > 100 µM | HCC 2998 > 100 µM | HL-60 > 100 µM | LOX IMVI > 100 µM | Malme-3M > 100 µM | NCI-H23 > 100 µM | OVCAR-3 > 100 µM | OVCAR-5 > 100 µM | OVCAR-8 > 100 µM | SK-MEL-28 > 100 µM | SK-MEL-2 > 100 µM | SNB-19 > 100 µM | U-251 > 100 µM | UACC-62 > 100 µM

N#CC(C(=O)/C(=N/N)C(C#N)c1ccccc1)c1ccccc1 (centres undefined)
inactive: 786-0 > 100 µM | A549 > 100 µM | ACHN > 100 µM | EKVX > 100 µM | HCC 2998 > 100 µM | HL-60 > 100 µM | LOX IMVI > 100 µM | Malme-3M > 100 µM | NCI-H23 > 100 µM | OVCAR-3 > 100 µM | OVCAR-5 > 100 µM | OVCAR-8 > 100 µM | SK-MEL-28 > 100 µM | SK-MEL-2 > 100 µM | SNB-19 > 100 µM | U-251 > 100 µM | UACC-62 > 100 µM

O=C(CC(NC(=O)OCc1ccccc1)C(=O)NC1Cc2ccccc2C1=O)OCc1ccccc1 (centres undefined)
inactive: 786-0 > 100 µM | A549 > 100 µM | ACHN > 100 µM | EKVX > 100 µM | HCC 2998 > 100 µM | MDA-MB-435 > 100 µM | Malme-3M > 100 µM | NCI-H23 > 100 µM | NCI/ADR-RES > 100 µM | OVCAR-3 > 100 µM | OVCAR-5 > 100 µM | OVCAR-8 > 100 µM | SK-MEL-28 > 100 µM | SK-MEL-2 > 100 µM | SNB-19 > 100 µM | U-251 > 100 µM | UACC-62 > 100 µM

CCOc1ccc(/C=C2/C(=O)N=C(N)N=C2N)cc1OCC
inactive: 786-0 > 100 µM | A549 > 100 µM | ACHN > 100 µM | EKVX > 100 µM | HCC 2998 > 100 µM | HL-60 > 100 µM | LOX IMVI > 100 µM | Malme-3M > 100 µM | NCI-H23 > 100 µM | OVCAR-3 > 100 µM | OVCAR-5 > 100 µM | OVCAR-8 > 100 µM | SK-MEL-28 > 100 µM | SK-MEL-2 > 100 µM | SNB-19 > 100 µM | U-251 > 100 µM | UACC-62 > 100 µM

CNC(SC)=C1C(=O)OC(C)(C)OC1=O
inactive: 786-0 > 100 µM | A549 > 100 µM | ACHN > 100 µM | EKVX > 100 µM | HCC 2998 > 100 µM | HL-60 > 100 µM | LOX IMVI 73.3 µM | Malme-3M > 100 µM | NCI-H23 > 100 µM | OVCAR-3 > 100 µM | OVCAR-5 > 100 µM | OVCAR-8 > 100 µM | SK-MEL-28 > 100 µM | SK-MEL-2 37.1 µM | SNB-19 > 100 µM | U-251 18.1 µM | UACC-62 > 100 µM

c1ccc(CN2CCCCC(Sc3ccccc3)CC2)cc1 (centres undefined)
inactive: 786-0 16.8 µM | A549 87.3 µM | ACHN 47.3 µM | EKVX 35.2 µM | HCC 2998 16 µM | HL-60 23.3 µM | LOX IMVI 16.5 µM | Malme-3M 19.1 µM | NCI-H23 30.1 µM | OVCAR-3 33.9 µM | OVCAR-5 18.3 µM | OVCAR-8 27.8 µM | SK-MEL-28 45.3 µM | SK-MEL-2 32.9 µM | SNB-19 34 µM | U-251 15.9 µM | UACC-62 36 µM

CC(O)c1ccc[n+](Cc2ccccc2)c1 (centres undefined)
inactive: 786-0 > 400 µM | A549 > 400 µM | ACHN > 400 µM | EKVX > 400 µM | HCC 2998 > 400 µM | HL-60 > 400 µM | LOX IMVI > 400 µM | Malme-3M > 400 µM | NCI-H23 > 400 µM | OVCAR-3 > 400 µM | OVCAR-5 > 400 µM | OVCAR-8 > 400 µM | SK-MEL-28 > 400 µM | SK-MEL-2 > 400 µM | SNB-19 > 400 µM | U-251 > 400 µM | UACC-62 > 400 µM
